Experiments:
syndecan-1 gene = test: Nuclear run-off of syndecan-1 transcription in 3T3NIH cells; assay type: cell-based, mouse
Method: The same cells were exposed to 10 ng/ml of FGF-2 for 4 hours and 24 hours with or without exposure to FGF (Control) followed by the isolation of nuclei for the run-off experiment. c-jun or nur transcription was used as a positive control and β-actin as a loading control. In nuclei isolated 4 hours after FGF exposure the level of transcription of the syndecan-1 gene was elevated as were the levels for c-jun and nur as positive controls.

3T3NIH cells = test: 125-IdU incorporation (DNA synthesis) assay in 3T3NIH cells; assay type: cell-based, mouse; details: pFiRE transfected 3T3NIH cells; 10 ng/ml growth factor (2 ng/ml TGF-β) or 5% FCS
Text: Effect of Various Growth Factors on Enhancer Activation in NIH3T3 Cells. Plasmid pFiRE was transfected into 3T3NIH cells as described, supra. The cells were starved in DMEM medium supplemented with 5% fetal calf serum to about 70% confluence. Fetal calf serum was then replaced with 2% carboxy-methyl-Sephadex eluted fetal calf serum (CMS) 12 hrs before adding the growth factors. Various growth factors in the same medium, 5% fetal calf serum (FCS) supplemented medium or a control containing the medium, without any added growth factors were incubated with the transfected cells for 2 days, and CAT activity was measured. The effect of 10 ng/ml of FGF-2, FGF-1, FGF-4, FGF-7 (KGF), EGF, IGF1, TGFα, IFNγ, and PDGF and 2 ng/ml TGF-β were tested. The human recombinant growth factors were purchased from Peprotech (FGF-1, -2, and -7), Boehringer (FGF-2) or from Calbiochem (PDGF) TGF-β was purchased from Sigma. The effect of the added growth factors and FCS on DNA synthesis was also tested by a 125-IdU incorporation assay. This cell proliferation assay was carried out by incubating cells for 4-6 hrs with 0.25 μCi/ml 5-[^125I]iodo-2′-deoxyuridine (IdU, Amersham), washed several times with PBS and solubilized in 1 M NaOH. Radioactivity was measured using a gamma counter (Wallac).

[1] = system: nuclear factors binding FiRE motifs 1-5; assay type: cell-based, mouse
Method: The Enhancer Comprises Five DNA Binding Motifs. Plasmid pFiRE was end-labeled using Klenow fragment and […]. DNAse I footprinting was performed with labeled pFiRE vector alone (naked), together with FGF-induced nuclear extracts (FGF-2), and together with non-induced nuclear extracts (control). To obtain nuclear extracts, NIH3T3 cells were plated on 16 cm dishes and treated with or without FGF-2 for 1 day. Nuclear proteins were extracted using a modification described by Lee et al., Gene Anal. Techn. 5:22-31 (1988). Protein concentrations were measured by the Bradford method.
In a 12 μl reaction, 5 μg of the nuclear extracts were incubated with labeled oligonucleotide, 2 μg of poly-d[I-C] and 2×reaction buffer, i.e., […], pH 7.5; 100 mM NaCl; 2 mM EDTA; and 10% glycerol for 15 minutes at room temperature. Non-labeled competitor oligonucleotides were used at 100-fold molar excess. The complexes were analyzed by electrophoresis in a 4.5% polyacrylamide gel. For supershifts, 0.1 μg of specific antibody was added to the reaction 15 minutes before the labeled oligonucleotide. […]
These motifs was further analyzed by competing the binding of nuclear factors with a molar excess of specific (s) and non-specific (ns) oligonucleotides. […] The resulting complexes were analyzed by the gel retardation analysis described above. […]

MCA3D cells = test: Cell proliferation of MCA3D keratinocytes; assay type: cell-based; details: MCA3D mouse keratinocytes

With “FGF-2: Basic fibroblast growth factor (FGF-2 or bFGF); recombinant human” the “transcription of syndecan-1 (run-off)” value (syndecan-1 gene; after 24 hours of 10 ng/ml FGF-2) was “not detectable”, the “level of transcription of the syndecan-1 gene (run-off)” value (syndecan-1 gene; nuclei isolated 4 hours after 10 ng/ml FGF exposure) was “elevated” and the “DNA synthesis / cell proliferation (125-IdU incorporation)” value (3T3NIH cells) was “significant increase in DNA synthesis”. The “nuclear protein binding to motifs 1 and 2” value [1] was “do not show binding to an FGF-2 inducible factor”, the “nuclear protein binding to motifs 3, 4 and 5” value [1] was “bind at least one specific FGF-2 inducible nuclear protein” and the cell proliferation (MCA3D cells) was “stimulated cell proliferation”.
